Assay results from publication PMC5943271, “Biosynthetic pathway for furanosteroid demethoxyviridin and identification of an unusual pregnane side-chain cleavage” (Nature Communications, 2018).
Like-named read-outs stand apart in the source and are kept apart here.

Experiments:
PI3K gamma kinase = PI3K gamma kinase (Homo sapiens, UniProt P48736); experiment: In vitro PI3K gamma kinase assay (PI3-Kinase (human) HTRF Assay kit); type: biochemical; conditions: for IC50: PI3K gamma, 10 μM PIP2, 10 μM ATP, room temperature 1 h, HTRF, two replicates, read-out: IC50 value, PI3K inhibitory activity
Description: The in vitro PI3K gamma kinase assay was carried out using a PI3-Kinase (human) HTRF^TM Assay kit (Millipore, USA) according to the manufacturer’s protocol. Briefly, the PI3K gamma kinase was incubated with 10 μM sample (tested compounds) in the reaction buffer containing 10 μM PIP2 in the wells of a 384-well opaque black plate (PerkinElmer, USA) at room temperature. Kinase reactions were initiated by adding 10 μM ATP and incubating the plate at room temperature for 1 h. The reactions were quenched by adding 5 μL of Stop Solution (containing EDTA and biotin-PIP3), and then the detection buffer (containing the Europium-labeled anti-GST antibody, the GST-tagged receptor of the phosphoinositide (GRP1) PH domain, and streptavidin–APC) was added to each well. Following 2 h incubation in the dark, the HTRF signal was measured with a 2104 EnVision® Multilabel Reader (PerkinElmer, USA) in the time-resolved fluorescence mode, set for excitation at 320 nm and dual emission detection at 615 nm (Eu) and 665 nm (APC). The emission ratio (ER) of 665 nm emission signal to 615 nm emission signal was then calculated and the inhibition ratio of a certain sample on PI3K was calculated according to the following formula: PI3K inhibition (%) = (ERsample − ER0%)/(ER100% − ER0%) × 100%. ER0% means 0% inhibition, which was calculated from the reaction of PI3K, PIP2, and ATP in the absence of sample.

MCF-7 cells = experiment: Cytotoxicity assay (CCK-8) against breast cancer cell line MCF-7; type: cell-based, human; conditions: MCF-7, 40 μM, 48 h
Description: (§1) The human breast cancer MCF-7 cell line (ATCC HTB-22) was used in the cytotoxicity assay. The cell line was cultured in DMEM (Gibco, Life Technologies, USA), supplemented with 10% fetal bovine serum (Gibco, Life Technologies, USA), in a 5% CO2 atmosphere at 37 °C. […] After a treatment with 40 μM of each compound (Dissolved with DMSO) for 48 h, the CCK-8 solution (10 μL) was added to each well and incubated for 2 h at 37 °C. The absorbance (Ab) of samples was detected at 450 nm using a microtiter plate reader (TriStar LB941, Berthold Technologies, Germany).

[1] = design: method as in PMID 19523825; conditions: cited from earlier work
[2] = Cytotoxicity assay (CCK-8) against breast cancer cell line MCF-7; type: cell-based, human; conditions: human, MCF-7 breast cancer cells (ATCC HTB-22), MCF-7, 48 h
Description: as §1

PI3K gamma kinase, sequence (P48736 whole entry): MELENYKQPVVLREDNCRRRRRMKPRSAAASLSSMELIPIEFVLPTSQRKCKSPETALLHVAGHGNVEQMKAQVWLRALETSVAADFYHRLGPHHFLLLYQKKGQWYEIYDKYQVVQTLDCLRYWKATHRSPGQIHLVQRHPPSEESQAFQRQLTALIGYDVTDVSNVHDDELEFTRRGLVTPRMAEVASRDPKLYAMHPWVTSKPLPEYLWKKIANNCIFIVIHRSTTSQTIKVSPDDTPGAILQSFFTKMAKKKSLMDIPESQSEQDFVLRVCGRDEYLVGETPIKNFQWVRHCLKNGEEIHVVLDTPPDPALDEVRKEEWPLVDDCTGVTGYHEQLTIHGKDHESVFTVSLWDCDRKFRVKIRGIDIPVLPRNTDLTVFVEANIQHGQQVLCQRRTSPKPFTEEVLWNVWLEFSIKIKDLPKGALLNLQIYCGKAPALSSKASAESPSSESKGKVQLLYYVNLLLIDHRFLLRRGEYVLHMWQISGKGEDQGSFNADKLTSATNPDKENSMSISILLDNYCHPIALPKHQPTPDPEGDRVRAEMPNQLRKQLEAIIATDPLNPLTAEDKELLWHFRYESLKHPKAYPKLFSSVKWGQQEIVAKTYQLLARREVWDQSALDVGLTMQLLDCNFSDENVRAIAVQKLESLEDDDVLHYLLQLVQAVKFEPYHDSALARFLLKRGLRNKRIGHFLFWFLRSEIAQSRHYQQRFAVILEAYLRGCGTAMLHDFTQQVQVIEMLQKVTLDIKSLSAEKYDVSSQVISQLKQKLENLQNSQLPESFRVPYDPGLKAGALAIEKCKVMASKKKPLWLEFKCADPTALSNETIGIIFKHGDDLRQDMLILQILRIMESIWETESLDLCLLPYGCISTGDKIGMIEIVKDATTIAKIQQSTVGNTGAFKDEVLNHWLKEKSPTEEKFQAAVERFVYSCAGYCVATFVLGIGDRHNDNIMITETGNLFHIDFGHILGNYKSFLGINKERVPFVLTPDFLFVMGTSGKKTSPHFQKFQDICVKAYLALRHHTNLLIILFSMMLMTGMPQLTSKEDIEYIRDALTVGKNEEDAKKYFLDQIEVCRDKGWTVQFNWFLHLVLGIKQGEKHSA

CC(=O)[C@H]1CC[C@H]2C3=C(CC[C@]12C)[C@@]1(C)CC[C@H](O)C2=C1[C@@](O)(OC2)C3=O
melting point: 218.2 to 221.7 °C

C[C@]12CC[C@H](O)c3coc(c31)C(=O)C1=C2C=C[C@]2(C)C(=O)CC[C@@H]12
melting point: 236.4 to 238.7 °C

C[C@]12CCC3=C(C(=O)c4occ5c4[C@]3(C)CC[C@@H]5O)[C@@H]1CC[C@@H]2O
melting point: 187.1 to 189.6 °C

C[C@@]12c3ccc4c(c3C(=O)c3occ(c31)C(=O)C[C@H]2O)CCC4=O [Compound 1, demethoxyviridin]
IC50 (PI3K gamma kinase): 0.0066 µM
cytotoxicity against MCF-7 (in words) (MCF-7 cells): moderate cytotoxicity
stability in PBS and culture media (in words) [1]: instability

C[C@@]12c3ccc4c(c3C(=O)c3occ(c31)[C@@H](O)C[C@H]2O)CCC4=O [Compound 2, demethoxyviridiol]
IC50 (PI3K gamma kinase): 1.07 µM
IC50 at 48 h ([2]; three replicates, read-out: IC50 value, cytotoxicity against MCF-7 (Supplementary Figure 9b)): 37.3 µM

C[C@]12CCC(=O)c3coc(c31)C(=O)c1c2ccc2c1CCC2=O [Compound 3, dehydroxydemethoxyviridin]
IC50 (PI3K gamma kinase): 0.167 µM

C[C@]12CCC3=C(C(=O)c4occ5c4[C@]3(C)CCC5=O)[C@@H]1CC[C@@H]2O [Compound 7, (6bR,9S,9aS,11bR)-9-hydroxy-9a,11b-dimethyl-1,2,6b,7,8,9,9a,10,11,11b-decahydrocyclopenta[7,8]phenanthro[10,1-bc]furan-3,6-dione]
IC50 (PI3K gamma kinase): 0.0427 µM
IC50 at 48 h ([2]; read-out: IC50 value, cytotoxicity against MCF-7): 15 µM

CC(=O)O[C@H]1CC[C@H]2C3=C(CC[C@]12C)[C@@]1(C)CC[C@H](O)c2coc(c21)C3=O [Compound 9, (3S,6bR,9S,9aS,11bR)-3-hydroxy-9a,11b-dimethyl-6-oxo-1,2,3,6,6b,7,8,9,9a,10,11,11b-dodecahydrocyclopenta[7,8]phenanthro[10,1-bc]furan-9-yl acetate]
inhibitory effect on PI3K (in words) (PI3K gamma kinase; 10 μM sample, Fig. 8a): abolishes the activity

CC(=O)[C@H]1CC[C@H]2C3=C(CC[C@]12C)[C@@]1(C)CCC(=O)c2coc(c21)C3=O [Compound 10, virone]
IC50 (PI3K gamma kinase): 2.25 µM
